Experimental data as given in ChEMBL document CHEMBL1150976, “The selectivity of protein kinase inhibitors: a further update” (Biochem J, 2007).
The source made the active and inactive calls. The rule behind the calls is not given here.

Legend:
[1] = molecular target: Serine/threonine-protein kinase D1 (Homo sapiens, UniProt Q15139); experiment: Inhibition of PKD1 in the presence of 50uM ATP
[2] = molecular target: Proto-oncogene tyrosine-protein kinase LCK (Mus musculus, UniProt P06240); experiment: Inhibition of Lck in the presence of 50uM ATP
[3] = molecular target: T1, Receptor-interacting serine/threonine-protein kinase 2 (Homo sapiens, UniProt O43353); experiment: Inhibition of RIP2 in the presence of 100uM ATP
[4] = molecular target: T1, Receptor-interacting serine/threonine-protein kinase 2; experiment: Percentage RIP2 activity remaining in the presence of 10uM inhibitor; conditions: filed as antagonist
[5] = molecular target: Mitogen-activated protein kinase 8 (Homo sapiens, UniProt P45983, M108A); experiment: Inhibition of JNK-M108A in the presence of 20uM ATP
[6] = molecular target: Mitogen-activated protein kinase 8 (Homo sapiens, UniProt P45983, M108G); experiment: Inhibition of JNK-M108G in the presence of 20uM ATP
[7] = molecular target: cAMP-dependent protein kinase catalytic subunit alpha (Homo sapiens, UniProt P17612); experiment: Inhibition of PKA in the presence of 20uM ATP
[8] = molecular target: Tyrosine-protein kinase CSK (Homo sapiens, UniProt P41240); experiment: Inhibition of CSK in the presence of 20uM ATP
[9] = molecular target: T2, Cyclin-G-associated kinase (Homo sapiens) (UniProt O14976); experiment: Percentage GAK activity remaining in the presence of 1uM inhibitor; conditions: filed as antagonist
T2 sequence (whole entry): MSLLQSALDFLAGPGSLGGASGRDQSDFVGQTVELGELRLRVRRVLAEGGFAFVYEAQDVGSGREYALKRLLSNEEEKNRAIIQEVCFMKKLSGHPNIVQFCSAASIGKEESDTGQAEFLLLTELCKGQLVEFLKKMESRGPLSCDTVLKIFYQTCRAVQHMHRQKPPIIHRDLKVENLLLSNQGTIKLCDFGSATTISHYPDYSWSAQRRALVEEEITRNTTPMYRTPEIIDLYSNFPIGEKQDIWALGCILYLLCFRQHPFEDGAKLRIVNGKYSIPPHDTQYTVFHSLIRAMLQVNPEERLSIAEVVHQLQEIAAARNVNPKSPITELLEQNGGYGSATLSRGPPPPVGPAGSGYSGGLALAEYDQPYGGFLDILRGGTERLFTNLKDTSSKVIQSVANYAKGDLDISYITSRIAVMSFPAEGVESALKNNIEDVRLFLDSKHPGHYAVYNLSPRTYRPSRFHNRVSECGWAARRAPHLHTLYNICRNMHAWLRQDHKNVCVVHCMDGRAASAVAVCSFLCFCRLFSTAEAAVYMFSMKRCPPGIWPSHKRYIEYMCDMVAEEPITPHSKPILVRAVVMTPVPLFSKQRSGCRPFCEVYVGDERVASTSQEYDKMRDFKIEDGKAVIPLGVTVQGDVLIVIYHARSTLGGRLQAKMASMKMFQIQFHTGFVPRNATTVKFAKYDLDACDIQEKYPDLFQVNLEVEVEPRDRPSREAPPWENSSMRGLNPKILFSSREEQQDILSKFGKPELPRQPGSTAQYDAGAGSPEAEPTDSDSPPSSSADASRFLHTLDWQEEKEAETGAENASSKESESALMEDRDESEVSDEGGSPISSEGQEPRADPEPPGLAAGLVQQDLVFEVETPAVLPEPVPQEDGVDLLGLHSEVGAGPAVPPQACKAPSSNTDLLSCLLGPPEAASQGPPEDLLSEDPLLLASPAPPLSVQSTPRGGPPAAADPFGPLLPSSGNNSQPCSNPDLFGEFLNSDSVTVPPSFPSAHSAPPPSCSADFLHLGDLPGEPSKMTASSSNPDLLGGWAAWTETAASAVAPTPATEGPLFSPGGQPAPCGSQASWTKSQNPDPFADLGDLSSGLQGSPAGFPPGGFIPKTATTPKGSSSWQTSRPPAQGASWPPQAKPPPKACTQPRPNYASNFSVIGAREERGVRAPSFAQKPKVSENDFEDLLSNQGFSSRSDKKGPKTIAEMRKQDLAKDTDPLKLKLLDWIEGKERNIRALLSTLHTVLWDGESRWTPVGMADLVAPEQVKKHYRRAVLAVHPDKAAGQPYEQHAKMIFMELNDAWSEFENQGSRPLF

[10] = molecular target: T1, Receptor-interacting serine/threonine-protein kinase 2; experiment: Percentage RIP2 activity remaining in the presence of 1uM inhibitor; conditions: filed as antagonist
[11] = molecular target: T2, Cyclin-G-associated kinase (Homo sapiens); experiment: Percentage GAK activity remaining in the presence of 10uM inhibitor; conditions: filed as antagonist
[12] = molecular target: Mitogen-activated protein kinase 8 (Homo sapiens, UniProt P45983); experiment: Inhibition of JNK1 in the presence of 20uM ATP
[13] = molecular target: T3, Serine/threonine-protein kinase pim-3 (Homo sapiens, UniProt Q86V86); experiment: Inhibition of PIM3 in the presence of 5uM ATP
[14] = molecular target: Serine/threonine-protein kinase pim-1 (Homo sapiens, UniProt P11309); experiment: Inhibition of PIM1 in the presence of 20uM ATP
[15] = molecular target: Dual specificity tyrosine-phosphorylation-regulated kinase 2 (Homo sapiens, UniProt Q92630); experiment: Inhibition of DYRK2 in the presence of 50uM ATP
[16] = molecular target: Glycogen synthase kinase-3 beta (Homo sapiens, UniProt P49841); experiment: Inhibition of GSK3-beta in the presence of 20uM ATP
[17] = molecular target: Mitogen-activated protein kinase 9 (Homo sapiens, UniProt P45984); experiment: Inhibition of JNK2 in the presence of 20uM ATP
[18] = molecular target: T3, Serine/threonine-protein kinase pim-3; experiment: Inhibition of PIM3 in the presence of 20uM ATP
[19] = molecular target: Serine/threonine-protein kinase PLK1 (Homo sapiens, UniProt P53350); experiment: Inhibition of PLK1 in the presence of 5uM ATP
[20] = molecular target: Mitogen-activated protein kinase 14 (Homo sapiens, UniProt Q16539)
[21] = molecular target: Dual specificity tyrosine-phosphorylation-regulated kinase 3 (Homo sapiens, UniProt O43781); experiment: Inhibition of DYRK3 in the presence of 5uM ATP
Aurora kinase B = Aurora kinase B (Homo sapiens, UniProt Q96GD4); experiment: Inhibition of Aurora B in the presence of 20uM ATP
[22] = molecular target: Serine/threonine-protein kinase Sgk1 (Homo sapiens, UniProt O00141); experiment: Inhibition of SGK1 in the presence of 20uM ATP
[23] = molecular target: Casein kinase I isoform delta (Homo sapiens, UniProt P48730)
[24] = molecular target: Serine/threonine-protein kinase pim-2 (Homo sapiens, UniProt Q9P1W9); experiment: Inhibition of PIM2 in the presence of 5uM ATP
[25] = molecular target: Proto-oncogene tyrosine-protein kinase Src (Gallus gallus, UniProt P00523); experiment: Inhibition of Src in the presence of 50uM ATP
[26] = Inhibition of AMPK in the presence of 50uM ATP; design: species or system Rattus norvegicus
[27] = molecular target: Serine/threonine-protein kinase 3 (Homo sapiens, UniProt Q13188); experiment: Inhibition of MST2 in the presence of 50uM ATP
[28] = molecular target: Serine/threonine-protein kinase BRSK2 (Homo sapiens, UniProt Q8IWQ3); experiment: Inhibition of BRSK2 in the presence of 50uM ATP
Aurora kinase C = Aurora kinase C (Homo sapiens, UniProt Q9UQB9); experiment: Inhibition of Aurora C in the presence of 5uM ATP
[29] = molecular target: T3, Serine/threonine-protein kinase pim-3; experiment: Inhibition of PIM3 in the presence of 100uM ATP
Casein kinase II = Casein kinase II (Homo sapiens, UniProt P19784+P67870+P68400); experiment: Inhibition of CK2 in the presence of 5uM ATP; type: protein-complex assay
HEK293 [30] = experiment: Inhibition of PKB-S473 phosphorylation in IGF-1 treated HEK293 cells at 0.5uM; type: functional, cell-based; conditions: Homo sapiens, filed as antagonist
HEK293 [31] = experiment: Inhibition of CHK2-T68 phosphorylation in MMS treated HEK293 cells at 0.5uM; type: functional, cell-based; conditions: Homo sapiens
HEK293 [32] = experiment: Inhibition of CHK1-S345 phosphorylation in MMS treated HEK293 cells at 0.5uM; type: functional, cell-based; conditions: Homo sapiens
[33] = molecular target: Myosin light chain kinase, smooth muscle (Homo sapiens, UniProt Q15746); experiment: Inhibition of SmMLCK in the presence of 50uM ATP

Sequence of Proto-oncogene tyrosine-protein kinase LCK (P06240 whole entry): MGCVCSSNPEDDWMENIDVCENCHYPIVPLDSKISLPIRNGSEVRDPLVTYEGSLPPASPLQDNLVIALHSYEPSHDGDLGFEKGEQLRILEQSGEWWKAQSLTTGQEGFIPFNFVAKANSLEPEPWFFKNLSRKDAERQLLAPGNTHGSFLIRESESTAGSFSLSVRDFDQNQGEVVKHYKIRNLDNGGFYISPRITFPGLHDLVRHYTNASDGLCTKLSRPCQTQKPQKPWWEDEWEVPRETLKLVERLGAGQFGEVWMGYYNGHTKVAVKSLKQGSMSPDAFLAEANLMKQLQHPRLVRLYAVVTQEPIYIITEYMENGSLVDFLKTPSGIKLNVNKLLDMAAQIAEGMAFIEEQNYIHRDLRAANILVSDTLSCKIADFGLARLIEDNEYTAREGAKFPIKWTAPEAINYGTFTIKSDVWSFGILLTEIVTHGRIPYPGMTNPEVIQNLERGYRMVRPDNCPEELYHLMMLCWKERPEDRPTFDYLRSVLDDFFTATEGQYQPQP
T1 sequence (O43353 whole entry): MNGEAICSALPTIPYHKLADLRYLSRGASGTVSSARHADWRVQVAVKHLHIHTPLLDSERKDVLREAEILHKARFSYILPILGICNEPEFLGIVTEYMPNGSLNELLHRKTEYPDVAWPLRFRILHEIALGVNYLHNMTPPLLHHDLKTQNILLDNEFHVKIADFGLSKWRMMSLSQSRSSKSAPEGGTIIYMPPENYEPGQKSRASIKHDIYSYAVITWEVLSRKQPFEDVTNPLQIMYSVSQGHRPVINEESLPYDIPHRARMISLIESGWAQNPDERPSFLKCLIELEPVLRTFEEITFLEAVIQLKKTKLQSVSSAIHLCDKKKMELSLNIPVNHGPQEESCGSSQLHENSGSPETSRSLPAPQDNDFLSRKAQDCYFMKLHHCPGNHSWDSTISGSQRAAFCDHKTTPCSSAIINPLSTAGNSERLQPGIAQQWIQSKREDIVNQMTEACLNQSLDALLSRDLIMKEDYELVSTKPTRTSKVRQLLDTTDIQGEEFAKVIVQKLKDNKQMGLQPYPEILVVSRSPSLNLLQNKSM
Sequence of Aurora kinase B (Q96GD4 whole entry): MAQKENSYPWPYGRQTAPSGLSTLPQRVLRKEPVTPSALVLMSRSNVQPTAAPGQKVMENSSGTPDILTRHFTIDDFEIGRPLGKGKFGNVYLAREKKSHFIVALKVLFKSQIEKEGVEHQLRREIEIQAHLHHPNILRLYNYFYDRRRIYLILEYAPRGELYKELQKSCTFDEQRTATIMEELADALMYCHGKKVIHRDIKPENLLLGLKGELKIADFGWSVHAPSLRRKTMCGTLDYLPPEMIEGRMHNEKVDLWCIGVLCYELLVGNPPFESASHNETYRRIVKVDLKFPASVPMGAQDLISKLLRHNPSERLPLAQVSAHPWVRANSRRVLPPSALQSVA
Sequence of Serine/threonine-protein kinase pim-1 (P11309 whole entry): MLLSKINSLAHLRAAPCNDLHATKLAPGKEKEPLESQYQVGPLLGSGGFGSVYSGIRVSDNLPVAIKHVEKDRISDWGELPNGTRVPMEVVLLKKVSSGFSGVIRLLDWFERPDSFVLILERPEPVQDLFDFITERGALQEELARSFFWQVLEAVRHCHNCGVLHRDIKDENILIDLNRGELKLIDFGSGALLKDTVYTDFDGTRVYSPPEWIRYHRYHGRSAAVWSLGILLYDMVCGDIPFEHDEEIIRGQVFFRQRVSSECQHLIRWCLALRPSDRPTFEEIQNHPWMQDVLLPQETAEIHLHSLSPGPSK
Sequence of Dual specificity tyrosine-phosphorylation-regulated kinase 2 (Q92630 whole entry): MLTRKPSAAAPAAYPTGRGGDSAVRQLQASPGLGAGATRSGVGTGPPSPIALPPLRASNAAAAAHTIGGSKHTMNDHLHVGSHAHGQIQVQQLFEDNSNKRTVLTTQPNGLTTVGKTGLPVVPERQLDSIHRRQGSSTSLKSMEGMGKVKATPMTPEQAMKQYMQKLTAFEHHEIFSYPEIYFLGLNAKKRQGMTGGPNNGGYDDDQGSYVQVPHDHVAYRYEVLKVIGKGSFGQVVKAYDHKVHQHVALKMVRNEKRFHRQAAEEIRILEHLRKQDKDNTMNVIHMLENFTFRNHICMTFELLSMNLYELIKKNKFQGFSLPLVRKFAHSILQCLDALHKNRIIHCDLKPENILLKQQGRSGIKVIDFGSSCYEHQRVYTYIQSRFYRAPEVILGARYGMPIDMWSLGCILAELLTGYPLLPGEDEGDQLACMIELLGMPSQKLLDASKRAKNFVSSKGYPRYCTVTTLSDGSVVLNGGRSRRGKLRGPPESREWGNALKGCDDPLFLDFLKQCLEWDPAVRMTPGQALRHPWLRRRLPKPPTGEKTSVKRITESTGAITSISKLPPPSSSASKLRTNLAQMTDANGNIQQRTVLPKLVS
Sequence of Serine/threonine-protein kinase pim-2 (Q9P1W9 whole entry): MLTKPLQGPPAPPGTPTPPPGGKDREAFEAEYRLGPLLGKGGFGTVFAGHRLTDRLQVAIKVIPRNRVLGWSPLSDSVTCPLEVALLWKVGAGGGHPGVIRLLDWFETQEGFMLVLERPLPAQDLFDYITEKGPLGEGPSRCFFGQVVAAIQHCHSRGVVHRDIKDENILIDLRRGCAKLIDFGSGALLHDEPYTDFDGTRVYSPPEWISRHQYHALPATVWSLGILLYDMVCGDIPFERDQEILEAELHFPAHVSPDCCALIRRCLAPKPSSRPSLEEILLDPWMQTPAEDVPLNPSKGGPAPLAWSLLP
Sequence of Serine/threonine-protein kinase D1 (Q15139 whole entry): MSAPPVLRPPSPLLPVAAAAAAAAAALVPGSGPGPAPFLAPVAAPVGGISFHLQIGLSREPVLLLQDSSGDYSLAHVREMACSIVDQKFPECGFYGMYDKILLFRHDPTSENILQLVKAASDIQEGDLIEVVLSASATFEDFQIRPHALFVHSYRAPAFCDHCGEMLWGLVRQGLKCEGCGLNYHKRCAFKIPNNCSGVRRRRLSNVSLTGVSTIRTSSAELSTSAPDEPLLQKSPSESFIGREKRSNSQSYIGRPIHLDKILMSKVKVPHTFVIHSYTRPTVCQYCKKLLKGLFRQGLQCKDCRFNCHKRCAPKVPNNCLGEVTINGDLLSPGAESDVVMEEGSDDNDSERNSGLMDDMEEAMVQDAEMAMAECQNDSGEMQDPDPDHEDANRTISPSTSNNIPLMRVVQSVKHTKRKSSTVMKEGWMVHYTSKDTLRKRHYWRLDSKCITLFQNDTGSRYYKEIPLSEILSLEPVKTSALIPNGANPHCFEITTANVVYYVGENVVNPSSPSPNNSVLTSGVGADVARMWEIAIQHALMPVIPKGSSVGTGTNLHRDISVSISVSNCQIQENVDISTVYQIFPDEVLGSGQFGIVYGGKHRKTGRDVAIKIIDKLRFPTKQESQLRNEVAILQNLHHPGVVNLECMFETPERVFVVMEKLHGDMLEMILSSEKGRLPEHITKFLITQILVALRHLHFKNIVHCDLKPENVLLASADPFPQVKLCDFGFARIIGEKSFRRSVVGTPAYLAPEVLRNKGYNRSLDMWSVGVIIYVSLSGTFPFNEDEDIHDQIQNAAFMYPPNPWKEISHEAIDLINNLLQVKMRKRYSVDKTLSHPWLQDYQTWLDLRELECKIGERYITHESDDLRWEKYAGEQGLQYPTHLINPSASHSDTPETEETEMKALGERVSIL
Sequence of Tyrosine-protein kinase CSK (P41240 whole entry): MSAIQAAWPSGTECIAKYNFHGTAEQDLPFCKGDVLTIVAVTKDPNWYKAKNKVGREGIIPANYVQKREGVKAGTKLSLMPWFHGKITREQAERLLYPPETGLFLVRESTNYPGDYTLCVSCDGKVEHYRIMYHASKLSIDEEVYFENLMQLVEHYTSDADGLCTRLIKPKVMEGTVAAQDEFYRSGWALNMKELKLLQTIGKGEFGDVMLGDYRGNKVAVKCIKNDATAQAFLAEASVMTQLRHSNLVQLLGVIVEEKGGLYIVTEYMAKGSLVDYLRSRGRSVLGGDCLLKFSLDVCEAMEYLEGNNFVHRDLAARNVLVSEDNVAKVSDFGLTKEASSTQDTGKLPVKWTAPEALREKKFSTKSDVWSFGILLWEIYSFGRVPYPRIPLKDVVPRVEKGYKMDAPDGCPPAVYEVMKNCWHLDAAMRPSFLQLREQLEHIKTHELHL
Sequence of Mitogen-activated protein kinase 8 (Homo sapiens, UniProt P45983, M108G) (P45983 whole entry M108G): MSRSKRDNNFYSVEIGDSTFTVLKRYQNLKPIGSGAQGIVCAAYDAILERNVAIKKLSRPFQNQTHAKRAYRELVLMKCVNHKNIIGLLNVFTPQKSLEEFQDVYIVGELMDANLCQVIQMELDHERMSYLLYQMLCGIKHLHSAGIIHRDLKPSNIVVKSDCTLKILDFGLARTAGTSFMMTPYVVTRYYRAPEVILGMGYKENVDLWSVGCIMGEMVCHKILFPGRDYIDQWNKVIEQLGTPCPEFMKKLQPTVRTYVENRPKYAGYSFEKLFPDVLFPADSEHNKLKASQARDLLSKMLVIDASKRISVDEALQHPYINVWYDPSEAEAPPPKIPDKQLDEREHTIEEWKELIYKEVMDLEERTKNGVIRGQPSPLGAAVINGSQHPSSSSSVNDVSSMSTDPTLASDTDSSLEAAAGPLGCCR
Sequence of Mitogen-activated protein kinase 8 (Homo sapiens, UniProt P45983) (P45983 whole entry): as the sequence (P45983 whole entry M108G) above, with G108M counted along it
Sequence of Mitogen-activated protein kinase 8 (Homo sapiens, UniProt P45983, M108A) (P45983 whole entry M108A): as the sequence (P45983 whole entry M108G) above, with G108A counted along it

Q: Which IC50 [1] does the source give for CC(C)(C)n1nc(Cc2cccc3ccccc23)c2c(N)ncnc21 here?
A: 250 nM (antagonist)

Q: And the IC50 [2]?
A: 460 nM (antagonist)

Q: And the IC50 [3]?
A: 130 nM (antagonist)

Q: And the Activity [4]?
A: 5%

Q: What about the IC50 [5] of the same compound?
A: 250 nM (antagonist)

Q: And the IC50 [6]?
A: 140 nM (antagonist)

Q: What about the IC50 [7] of the same compound?
A: 500 nM (antagonist)

Q: And the IC50 [8]?
A: 510 nM (antagonist)

Q: And the Activity [9]?
A: 43%

Q: And the Activity [10]?
A: 14%

Q: And the Activity [11]?
A: 6%

Q: Which IC50 [12] does the source give for N#C/C(=C1/Nc2ccccc2S1)c1ccnc(NCCc2cccnc2)n1 here?
A: 2600 nM (antagonist)

Q: And the IC50 [13]?
A: 30 nM (antagonist)

Q: What about the IC50 [14] of the same compound?
A: 80 nM (antagonist)

Q: What about the IC50 [15] of the same compound?
A: 300 nM (antagonist)

Q: And the IC50 [16]?
A: 40 nM (antagonist)

Q: What about the IC50 [17] of the same compound?
A: 5000 nM (antagonist)

Q: What does the source list for O=c1cc(N2CCOCC2)oc2c(-c3ccccc3)cccc12 [LY-294002]?
A: IC50 [18]: 1400 nM (antagonist); IC50 [19]: 2000 nM (antagonist)

Q: Which IC50 [1] does the source give for NC(=O)c1ccc(-c2nc(-c3ccc4c(c3)OCCO4)c(-c3ccccn3)[nH]2)cc1 here?
A: 9100 nM (antagonist)

Q: What about the IC50 [20] of the same compound?
A: 5800 nM (antagonist)

Q: With Nc1ncnc2[nH]nc(Nc3ccc(F)cc3)c12 as the compound, how does the IC50 [21] read?
A: 3200 nM (antagonist)

Q: What about the IC50 [2] of the same compound?
A: 2500 nM (antagonist)

Q: What about the IC50 (Aurora kinase B) of the same compound?
A: 2500 nM (antagonist)

Q: What about the IC50 [22] of the same compound?
A: 2700 nM (antagonist)

Q: And the IC50 [23]?
A: 510 nM (antagonist)

Q: For O=C1Nc2ccc(I)cc2C1=Cc1cc(Br)c(O)c(Br)c1 [GW305074X], which IC50 [14] is on record?
A: 170 nM (antagonist)

Q: And the Activity [9]?
A: 32%

Q: What about the Activity [10] of the same compound?
A: 35%

Q: What about the IC50 [24] of the same compound?
A: 70 nM (antagonist)

Q: And the IC50 [18]?
A: 100 nM (antagonist)

Q: With CN(C)S(=O)(=O)c1ccc2c(c1)/C(=C/c1cc3c([nH]1)CCCC3)C(=O)N2 as the compound, how does the IC50 [2] read?
A: 150 nM (antagonist)

Q: What about the IC50 [25] of the same compound?
A: 100 nM (antagonist)

Q: What about the IC50 [26] of the same compound?
A: 110 nM (antagonist)

Q: And the IC50 (Aurora kinase B)?
A: 19 nM (antagonist)

Q: What about the IC50 [27] of the same compound?
A: 110 nM (antagonist)

Q: And the IC50 [28]?
A: 100 nM (antagonist)

Q: What about the IC50 (Aurora kinase C) of the same compound?
A: 17 nM (antagonist)

Q: With O=C(O)c1ccc2c3c1cccc3c(=O)n1c3ccccc3nc21 as the compound, how does the IC50 [29] read?
A: 83 nM (antagonist)

Q: And the IC50 [26]?
A: 160 nM (antagonist)

Q: What about the IC50 (Casein kinase II) of the same compound?
A: 190 nM (antagonist)

Q: And the IC50 [24]?
A: 110 nM (antagonist)

Q: What about the IC50 [15] of the same compound?
A: 950 nM (antagonist)

Q: For Oc1cccc(-c2nc(N3CCOCC3)c3oc4ncccc4c3n2)c1, which Activity (HEK293 [30]) is on record?
A: Antagonist

Q: What about the Activity (HEK293 [31]) of the same compound?
A: inactive

Q: What about the Activity (HEK293 [32]) of the same compound?
A: inactive

Q: Which IC50 [33] does the source give for COC[C@H]1OC(=O)c2coc3c2[C@@]1(C)C1=C(C3=O)[C@@H]2CCC(=O)[C@@]2(C)C[C@H]1OC(C)=O [WORTMANNIN] here?
A: 5000 nM (antagonist)
